Here are results for 1 compound from patent KR20220113942A, “제조성 및 용출성이 우수한 소형 정제” (스미토모 파마 가부시키가이샤, priority 2019, dated 2021).

This data set is described as follows: Test Example 2: evaluation of tabletability (capping on tableting). To be noted: conclusion in words from Table 22. It is filed as physicochemical.

Take `C[C@@H]1N=C(N)NC(N(C)C)=N1` [이메글리민, (6R)-N2,N2,6-트리메틸-3,6-디히드로-1,3,5-트리아진-2,4-디아민, 염산염]: the compression moldability entry was “압축 성형성이 나빠서”. Besides, the “tendency to tableting failure (capping) as drug content ratio in the tablet rises” value (high drug content ratio in the tablet) is listed as “타정 장해(캐핑)가 발생하기 쉬움”.
